We go through 11 compounds from patent publication US20240360178A1, “MACROCYCLIC IMMUNOMODULATORS” (Bristol-Myers Squibb Company, priority 2021, published 2024).

Positions of bridges follow the written chain, without caps; N, C: chain ends. Non-standard residues stand in square brackets, D forms with d. Residues, ends and D or L forms follow the SMILES beside them. ξ: configuration not given here. *: point of attachment. Phe(4-CH2NH2) = NCc1ccc(C[C@H](N)C(=O)O)cc1; Bip = N[C@@H](Cc1ccc(-c2ccccc2)cc1)C(=O)O; Phe(3-Me) = Cc1cccc(C[C@H](N)C(=O)O)c1; NMeF = CN[C@@H](Cc1ccccc1)C(=O)O; dPip = O=C(O)[C@H]1CCCCN1; Carboxymethyl = O=C(O)C*; NMeA = CN[C@@H](C)C(=O)O; ξF = NC(Cc1ccccc1)C(=O)O; Sar = CNCC(=O)O

In this test the target is T1, human PD-1 (Jurkat-PD-1 cells) / PE-labeled human PD-L1-Ig (Homo sapiens, UniProt Q15116).
T1 construct: expressed in transfected cells; host or cells: Jurkat cell line over-expressing human PD-1
T1 sequence (Q15116 25-288): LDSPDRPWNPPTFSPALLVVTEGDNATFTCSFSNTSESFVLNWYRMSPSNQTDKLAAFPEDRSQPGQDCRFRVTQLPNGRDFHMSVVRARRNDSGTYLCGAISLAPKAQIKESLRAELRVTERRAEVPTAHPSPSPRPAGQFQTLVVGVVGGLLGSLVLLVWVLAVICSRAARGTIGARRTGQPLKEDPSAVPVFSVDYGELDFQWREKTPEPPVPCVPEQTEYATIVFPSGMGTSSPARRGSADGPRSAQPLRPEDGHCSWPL
The experiment in a line: Jurkat-PD-1 Cell Binding High-Content Screening Assay (CBA); Jurkat hPD1-PDL1 assay. Conditions: Jurkat cell line over-expressing human PD-1; PE-labeled PD-L1-Ig 20 nM final; compound incubated 2 hours at 37° C.; read-out: Jurkat HPD1-PDL1 IC50. On the procedure: The ability of the compounds of formula (I) to bind to PD-1 was investigated using a Jurkat-PD-1 Cell Binding High-Content Screening Assay.
Jurkat-PD-1 Cell Binding High-Content Screening Assay (CBA)
Phycoerythrin (PE) was covalently linked to the Ig epitope tag of human PD-L1-Ig and fluorescently-labeled PD-L1-Ig was used for binding studies with a Jurkat cell line over-expressing human PD-1 (Jurkat-PD-1). Briefly, 8×10^3 Jurkat-hPD-1 cells were seeded into 384 well plates in 20 μL of DMEM supplemented with 10% fetal calf serum. 100 nL of compound was added to cells followed by incubation at 37° C. for 2 hours. Then, 5 μL of PE-labeled PD-L1-Ig (20 nM final), diluted in DMEM supplemented with 10% fetal calf serum. […] Data was collected and processed using a Cell Insight NXT High Content Imager and associated software.
On to `CC(C)C[C@@H]1NC(=O)[C@H](CCCNC(=N)N)NC(=O)[C@H](Cc2ccccc2)N(C)C(=O)[C@H](C)N(C)C(=O)[C@H](CCCNC(=N)N)NC(=O)[C@H](Cc2ccc(-c3ccccc3)cc2)NC(=O)[C@H](C(C)C)NC(=O)[C@H](Cc2c[nH]c3ccccc23)NC(=O)[C@H](CC(=O)O)NC(=O)[C@H](Cc2ccc(O)cc2)NC(=O)[C@H](CC(N)=O)NC(=O)CSC[C@@H](C(=O)NCC(N)=O)NC(=O)[C@H](CO)NC(=O)[C@H](C(C)C)NC1=O` [Example 1032] ({CH2CO}-NYDWV[Bip]R[NMeA][NMeF]RLVSCG-NH2; thioether N-14), for which the IC50 was found to be 0.06 µM.

Consider `Cc1cccc(C[C@@H]2NC(=O)[C@H](Cc3ccccc3)NC(=O)CSC[C@@H](C(=O)N[C@@H](C)C(N)=O)NC(=O)[C@H](CO)NC(=O)[C@H](C(C)C)NC(=O)[C@H](CC(C)C)NC(=O)[C@H](CC(N)=O)NC(=O)[C@H]3CCCN3C(=O)[C@H](C)N(C)C(=O)[C@H](C(C)C)NC(=O)[C@H](Cc3ccc(-c4ccccc4)cc3)NC(=O)[C@H](CC(C)C)NC(=O)[C@H](Cc3c[nH]c4ccccc34)NC(=O)[C@H](CC(=O)O)NC2=O)c1` [Example 1033] ({CH2CO}-F[Phe(3-Me)]DWL[Bip]V[NMeA][dP]NLVSCA-NH2; thioether N-14), for which the IC50 came out at 0.06 µM.

In the case of `CC(C)C[C@@H]1NC(=O)[C@H](Cc2c[nH]c3ccccc23)NC(=O)[C@H](CC(=O)O)NC(=O)[C@H](Cc2ccc(O)cc2)NC(=O)[C@H](Cc2ccccc2)NC(=O)CSC[C@@H](C(=O)N[C@@H](C)C(N)=O)NC(=O)[C@H](CO)NC(=O)[C@H](C(C)C)NC(=O)[C@H](CC(C)C)NC(=O)[C@H](CC(N)=O)NC(=O)[C@H]2CCCN2C(=O)[C@H](C)N(C)C(=O)[C@H](C(C)C)NC(=O)[C@H](Cc2ccc(-c3ccccc3)cc2)NC1=O` [Example 1034] ({CH2CO}-FYDWL[Bip]V[NMeA][dP]NLVSCA-NH2; thioether N-14), the IC50 was 0.06 µM.

In the case of `CC(C)C[C@@H]1NC(=O)[C@H](Cc2c[nH]c3ccccc23)NC(=O)[C@H](CC(=O)O)NC(=O)[C@H](Cc2ccc(O)cc2)NC(=O)[C@H](Cc2ccccc2)NC(=O)CSC[C@@H](C(=O)NCC(N)=O)NC(=O)[C@H](CO)NC(=O)[C@H](C(C)C)NC(=O)[C@H](CC(C)C)NC(=O)[C@H](CC(N)=O)NC(=O)[C@H]2CCCN2C(=O)[C@H](C)N(C)C(=O)[C@H](C(C)C)NC(=O)[C@H](Cc2ccc(-c3ccccc3)cc2)NC1=O` [Example 1035] ({CH2CO}-FYDWL[Bip]V[NMeA][dP]NLVSCG-NH2; thioether N-14), the IC50 is 0.06 µM.

For `CC(C)C[C@@H]1NC(=O)[C@H](Cc2c[nH]c3ccccc23)NC(=O)[C@H](CC(=O)O)NC(=O)[C@H](Cc2ccc(O)cc2)NC(=O)[C@H](Cc2ccccc2)NC(=O)CSC[C@@H](C(=O)N[C@@H](C)C(N)=O)NC(=O)[C@H](CO)NC(=O)[C@H](C(C)C)NC(=O)[C@H](CC(C)C)NC(=O)[C@H](CCCCN)NC(=O)[C@H]2CCCN2C(=O)[C@H](C)N(C)C(=O)[C@H](CCC(=O)O)NC(=O)[C@H](Cc2ccc(-c3ccccc3)cc2)NC1=O` [Example 1036] ({CH2CO}-FYDWL[Bip]E[NMeA][dP]KLVSCA-NH2; thioether N-14), the IC50 is 0.06 µM.

For `CC(C)C[C@@H]1NC(=O)[C@H](Cc2c[nH]c3ccccc23)NC(=O)[C@H](CC(=O)O)NC(=O)[C@H](Cc2ccc(O)cc2)NC(=O)[C@H](Cc2ccccc2)NC(=O)CSC[C@@H](C(=O)N[C@@H](C)C(N)=O)NC(=O)[C@H](CO)NC(=O)[C@H](C(C)C)NC(=O)[C@H](CC(C)C)NC(=O)[C@H](CCC(N)=O)NC(=O)[C@H]2CCCN2C(=O)[C@H](C)N(C)C(=O)[C@H](C(C)C)NC(=O)[C@H](Cc2ccc(-c3ccccc3)cc2)NC1=O` [Example 1037] ({CH2CO}-FYDWL[Bip]V[NMeA][dP]QLVSCA-NH2; thioether N-14), the IC50 turned out to be 0.07 µM.

For the compound `CC(C)C[C@@H]1NC(=O)[C@H](Cc2c[nH]c3ccccc23)NC(=O)[C@H](CC(=O)O)NC(=O)[C@H](Cc2ccc(O)cc2)NC(=O)[C@H](Cc2ccccc2)NC(=O)CSC[C@@H](C(=O)N[C@@H](C)C(N)=O)NC(=O)[C@H](CO)NC(=O)[C@H](C(C)C)NC(=O)[C@H](CC(C)C)NC(=O)[C@H](CC(N)=O)NC(=O)[C@H]2CCCCN2C(=O)[C@H](C)N(C)C(=O)[C@H](C(C)C)NC(=O)[C@H](Cc2ccc(-c3ccccc3)cc2)NC1=O` [Example 1038] ({CH2CO}-FYDWL[Bip]V[NMeA][dPip]NLVSCA-NH2; thioether N-14), the IC50 came out at 0.07 µM.

For `CC(C)C[C@@H]1NC(=O)[C@H](Cc2c[nH]c3ccccc23)NC(=O)[C@H](CC(=O)O)NC(=O)[C@H](Cc2ccc(O)cc2)NC(=O)[C@H](Cc2ccccc2)NC(=O)CSC[C@@H](C(=O)N[C@@H](C)C(N)=O)NC(=O)[C@H](CO)NC(=O)[C@H](C(C)C)NC(=O)[C@H](CC(C)C)NC(=O)[C@H](CC(N)=O)NC(=O)[C@H]2CCCN2C(=O)[C@H](C)N(C)C(=O)[C@H](CCC(=O)O)NC(=O)[C@H](Cc2ccc(-c3ccccc3)cc2)NC1=O` [Example 1039] ({CH2CO}-FYDWL[Bip]E[NMeA][dP]NLVSCA-NH2; thioether N-14), the IC50 is 0.07 µM.

`CC(C)C[C@@H]1NC(=O)[C@H](Cc2c[nH]c3ccccc23)NC(=O)[C@H](CC(=O)O)NC(=O)[C@H](Cc2ccc(CN)cc2)NC(=O)[C@H](Cc2ccccc2)NC(=O)CSC[C@@H](C(=O)N[C@@H](C)C(N)=O)NC(=O)[C@H](CO)NC(=O)[C@H](C(C)C)NC(=O)[C@H](CC(C)C)NC(=O)[C@H](CC(N)=O)NC(=O)[C@H]2CCCN2C(=O)[C@H](C)N(C)C(=O)[C@H](C(C)C)NC(=O)[C@H](Cc2ccc(-c3ccccc3)cc2)NC1=O` [Example 1040] ({CH2CO}-F[Phe(4-CH2NH2)]DWL[Bip]V[NMeA][dP]NLVSCA-NH2; thioether N-14): the IC50 was 0.07 µM.

In the case of `CC(C)C[C@@H]1NC(=O)[C@H](Cc2c[nH]c3ccccc23)NC(=O)[C@H](CC(=O)O)NC(=O)[C@H](Cc2ccc(OCC(=O)O)cc2)NC(=O)[C@H](CC(N)=O)NC(=O)CSC[C@@H](C(=O)N[C@@H](C)C(N)=O)NC(=O)[C@H](CO)NC(=O)[C@H](C(C)C)NC(=O)[C@H](CC(C)C)NC(=O)[C@H](CC(N)=O)NC(=O)[C@H]2CCCN2C(=O)[C@H](C)N(C)C(=O)[C@H](C(C)C)NC(=O)[C@H](Cc2ccc(-c3ccccc3)cc2)NC1=O` [Example 1042] ({CH2CO}-NY(Carboxymethyl)DWL[Bip]V[NMeA][dP]NLVSCA-NH2; thioether N-14), the IC50 worked out at 0.07 µM.

Regarding `CC(C)C[C@@H]1NC(=O)[C@H](Cc2c[nH]c3ccccc23)NC(=O)[C@H](CC(=O)O)NC(=O)[C@H](Cc2ccc(O)cc2)NC(=O)C(Cc2ccccc2)NC(=O)CSC[C@@H](C(=O)NCC(N)=O)NC(=O)[C@@H](CO)NC(=O)[C@H](C(C)C)NC(=O)[C@H](CC(C)C)NC(=O)[C@H](CC(N)=O)NC(=O)CN(C)C(=O)[C@H](C)N(C)C(=O)[C@H](C(C)C)NC(=O)[C@H](Cc2ccc(-c3ccccc3)cc2)NC1=O` (some centres unmarked) [Example 1043] ({CH2CO}-[ξF]YDWL[Bip]V[NMeA][Sar]NLV[dS]CG-NH2; thioether N-14), the IC50 worked out at 0.08 µM.
